Experimental data from paper PMC6104039 (Nature Communications, 2018).
Entries after “also recorded” stand apart in the source; their conditions may differ.

What was measured:
[1] = Plasma P053 concentration after oral dosing, LC-MS/MS; type: in vivo, mice
Protocol: Plasma samples (20 μL) were extracted with 200 μL methanol containing 20 pmoles AAL(S)[27] as the internal standard. The mixtures were vortexed, then sonicated in ice water using a Bioruptor (Diagenode) for 2 min at 30 s intervals. Extracts were centrifuged at 1400 rpm for 20 min, 4 °C, to clear debris. Supernatants were transferred to 5 mL glass tubes. The remaining insoluble material was re-extracted with 1 mL 80% methanol as above, and the supernatant combined with the first extract. The extracts were evaporated under vacuum (Savant SC210 SpeedVac, Thermo Scientific). Dried extracts were reconstituted in 200 μL of 80% methanol/0.2% formic acid and stored at −20 °C. On the day of analysis, the extracts were vortexed thoroughly and centrifuged at 300 × g for 20 min before transferring 100 μL of the supernatant to glass HPLC vials.
LC-MS/MS was performed on a TSQ Quantum Access triple quadrupole mass spectrometer in positive ion mode, coupled to an Accela UPLC system (Thermo Scientific). Extracts (20 μL) were separated on a 2 × 100 mm Eclipse XDB-C8 column with 1.8 μm particle size (Agilent Technologies), using a 7.5 min binary HPLC gradient: 0 min, 70% B ([…]); 1.5 min, 70% B; 3.5 min, 95% B; 4 min, 95% B; 4.5 min, 70% B; 7.5 min 70% B. Mobile phase A: 2 mM ammonium formate/1% formic acid in water; mobile phase B: 1 mM ammonium formate/1% formic acid in methanol. The flow rate was 0.4 mL min^−1, increasing to 0.5 mL min^−1 from 5–7 min, and column oven 30 °C. […] Visualisation and quantification of peaks was performed using Thermo Fisher’s XCalibur software v2.2.

[2] = molecular target: T1, recombinant human sphingosine kinase 2 (Homo sapiens, UniProt Q9NRA0); experiment: Sphingosine kinase assay with NBD-dihydrosphingosine, TLC; type: biochemical; conditions: 10 μM
T1 construct: purchased R&D Systems
T1 sequence (Q9NRA0 whole entry): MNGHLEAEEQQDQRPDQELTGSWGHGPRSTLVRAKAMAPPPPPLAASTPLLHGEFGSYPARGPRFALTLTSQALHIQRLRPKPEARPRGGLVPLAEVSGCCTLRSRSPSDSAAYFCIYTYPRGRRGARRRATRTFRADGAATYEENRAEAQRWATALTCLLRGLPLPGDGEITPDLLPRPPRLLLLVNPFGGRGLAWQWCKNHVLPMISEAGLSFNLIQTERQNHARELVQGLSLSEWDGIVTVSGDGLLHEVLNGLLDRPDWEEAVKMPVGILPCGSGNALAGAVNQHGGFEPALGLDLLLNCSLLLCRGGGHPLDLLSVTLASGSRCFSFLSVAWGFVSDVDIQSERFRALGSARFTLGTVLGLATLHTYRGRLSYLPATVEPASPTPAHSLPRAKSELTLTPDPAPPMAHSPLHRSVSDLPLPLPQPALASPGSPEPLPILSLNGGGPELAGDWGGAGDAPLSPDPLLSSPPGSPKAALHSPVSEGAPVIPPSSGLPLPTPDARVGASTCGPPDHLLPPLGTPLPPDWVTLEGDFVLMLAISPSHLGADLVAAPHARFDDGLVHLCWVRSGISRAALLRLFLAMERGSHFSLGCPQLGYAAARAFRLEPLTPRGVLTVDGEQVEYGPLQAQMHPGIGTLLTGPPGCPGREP
Protocol: Sphingosine kinase assays were performed using fluorescent NBD-dihydrosphingosine[63],[64]. […] Reactions were stopped with 100 μL methanol, and 5 μL amounts were resolved on Silica Gel 60 thin layer chromatography (TLC) plates using butanol:acetic acid:water (3:1:1). The fluorescent NBD-dihydrosphingosine 1-phosphate band was quantified using a BioRad ChemiDoc imaging system with excitation by UV light.
Supplementary Figure 2. […] Activity of recombinant
human sphingosine kinases 1 and 2 (SphK1 and 2) was assessed in the presence of 10 µM
Activity is expressed as a percentage of the vehicle control.

C57BL6/J mice = experiment: Food intake; conditions: mouse, in vivo
PPAR alpha = experiment: PMP70 protein expression in liver lysates (PPAR alpha agonism); type: in vivo, mice
Source text: For PPAR alpha we have examined the protein expression of
PMP70 (an abundant peroxisomal m embrane protein) in liver lysates, as PPAR alpha is much more
highly expressed in liver and we have clear evidence (Supplementary Fig 6) that P053 distributes
into liver at levels that are higher that those present in skeletal muscle.
treated with a known PPAR alpha agonist WY14643 (WY) vs. vehicle (veh) controls shown on the
right of the gel as positive controls.

[3] = system: permeabilised extensor digitorum longus muscle fibres; experiment: Respiratory complex activities in permeabilized extensor digitorum longus muscle fibres; type: in vivo, mice; conditions: three weeks, 5 mg/kg
Protocol: Permeabilized extensor digitorum longus (EDL) fibres were prepared and mitochondrial function analyzed according to published protocols with some modifications[71],[72]. Briefly, EDL muscles were dissected tendon-to-tendon into ice-cold isolation buffer A (10 mM Ca-EGTA buffer, 20 mM imidazole, 20 mM taurine, 49 mM K-MES, 3 mM K2HPO4, 9.5 mM MgCl2, 5.7 mM ATP, 15 mM phosphocreatine, 1 μM leupeptin, pH 7.1) and fibres were prepared immediately. Fibre bundles (~3 mg wet weight) were treated with saponin (50 μg/mL) for 20 min at 4 °C and subsequently washed in cold respiration medium B (0.5 mM EGTA, 3 mM MgCl2.6H2O, 20 mM taurine, 10 mM KH2PO4, 20 mM HEPES, 0.1% BSA, 15 mM potassium-lactobionate, 110 mM mannitol, 0.3 mM dithiothreitol, pH 7.1). […] Fibres were recovered after polarography and results were expressed as nmoles of O2/min/mg of tissue. Mitochondrial membrane integrity was verified by cytochrome c release test[71],[72].

SkM = experiment: Mitochondrial DNA content of SkM by quantitative PCR; type: in vivo, mice
Protocol: Total DNA was isolated using standard phenol:chloroform extraction, followed by RNase H (NEB) treatment. Relative levels of nuclear and mitochondrial DNA were determined by quantitative PCR on a LightCycler 480 (Roche) using SensiFAST SYBR mastermix (Bioline). Primers for quantification of genomic DNA were: 5′- […]-3′, and 5′- […]-3′; and mitochondrial DNA: 5′- […]-3′, and 5′- […]-3′[73]. Calibration curves of Ct against input DNA were prepared from a pooled sample of mouse SkM DNA, and used to calculate the relative abundance of mitochondrial to nuclear DNA in each sample.

- concentration at 6 weeks ([1]; C57BL6/J, mouse, plasma, oral, 5 mg/kg/day for 6 weeks): ~300 nM
- half-life ([1]; C57BL6/J, mouse, plasma, single 5 mg/kg dose by oral gavage): 28 h
- Tmax ([1]; C57BL6/J, mouse, plasma, single 5 mg/kg dose by oral gavage, read-out: time of maximal plasma concentration): 4 h
- maximal plasma concentration ([1]; single 5 mg/kg dose by oral gavage): 20 nM
SMILES: C[C@@](N)(CO)CCc1ccc(OCc2ccc(Cl)c(Cl)c2)cc1 [P053, (S)-2-amino-4-(4-(3,4-dichlorobenzyloxy)phenyl)-2-methylbutan-1-ol]
- inhibition of sphingosine kinase 2 [2]: did not inhibit; also recorded: does not inhibit; also recorded: no inhibitory activity
- food intake (C57BL6/J mice): not due to any effect of P053 on food intake
- expression of PMP70 (PPAR alpha): unaffected
- complex II activity [3]: trend for an increase
- respiratory activity with complex I and IV substrates [3]: significant increase
- mitochondrial DNA content (SkM): elevated
